# Assay results from patent US11420962B2, “Indene derivatives useful in treating pain and inflammation” (TARO PHARMACEUTICALS INC., priority 2018, dated 2022).
# Key:
# [1] = test system: Rats (male, Sprague-Dawley); assay: Spinal nerve ligation (neuropathic pain); type: in vivo
# Text: Rats (male, Sprague-Dawley) were anaesthetized and placed in a prone position and the left paraspinal muscles were separated from the spinous processes at the L6-S2 levels. The L6 transverse process was carefully removed to visually identify the L4-L6 spinal nerves. The left L5 spinal nerves were isolated and tightly ligated with 6-0 silk thread. The skin was sutured to close the open tissue and animals were allowed to recover for 1 week before pain assessment. Basal readings for mechanical allodynia and thermal hyperalgesia were performed using a dynamic plantar aesthesiometer and plantar test surface, respectively, before surgery. On Day 7 following surgery, mechanical allodynia and thermal hyperalgesia were assessed and animals were randomized into treatment groups based on these baseline readings. […] Thermal hyperalgesia and mechanical allodynia were tested at 0, 60 and 120 minutes post administration of compounds on Days 7 and 14.
# [2] = test system: Mice (male, C57Bl/6); assay: Bleomycin lung fibrosis; type: in vivo
# Text: Mice (male, C57BL/6) were randomized into treatment groups and fibrosis was induced by intratracheal administration of bleomycin. Treatment with representative compounds of the invention (i.e., test compounds) or reference standard (pirfenidone) was initiated on Day −1 and administered daily unto Day 7 or Day 21. For groups undergoing bronchoalveolar lavage (BAL), the trachea was cannulated and infused with ice cold Hank's Balanced Salt Solution (HBSS, pH 7.2). The collected lavage fluid was analyzed for cell numbers (total and differential counts) and levels of soluble TGFβ and collagen. For other groups, the lungs were either snap-frozen or formalin-fixed for further analyses.
# [3] = test system: Human DRG; assay: Human dorsal root ganglion (DRG) excitability response; type: cell-based; conditions: Table 6; Biological Example 3, human DRG; read-out: Scoring (IC50)
# Experimental: Human DRGs are transferred into a dissection vessel containing a cold (4° C.), fresh proprietary dissection solution. DRGs are maintained completely submerged in dissection solution followed by dissection by an appropriate method.
# Cells are plated into a 96 well plate. Calcium dye (Fluo 8-AM) is loaded in each well for a period of 20 to 25 min, maintaining temperature at ambient. The baseline excitability profile (ability of firing action potentials) of the cells is assessed at both low and high threshold stimulations using optical EFS. Following baseline profiling, cells are subjected to test compounds.
# Representative compounds of the invention (i.e., test compounds) are added to cells and the cells are stimulated (using EFS) to induce action potentials at regular intervals, according to the parameters outlined in Table 5. Four concentrations of each compound are utilized and directly injected into separate wells to allow for determination of a dose response (IC50). At the end of the protocol, the nociceptor positive control compound (capsaicin) is perfused into the cells at 200 nM and signal recorded. […]
# Recordings are performed in stream mode at 100 Hz for the EFS portion of the above protocol and in time lapse model at 0.2 Hz for the final step utilizing capsaicin. For each concentration tested, the number of cells blocked vs baseline will be counted at different thresholds. […]
# [4] = test system: Rats (female, Sprague-Dawley); assay: Rat ketamine cystitis (visceral pain); type: in vivo
# Experimental: Rats (female, Sprague-Dawley) received daily intraperitoneal injections of saline (sham control) or ketamine (50 mg/kg) for 14 days. […] Referred mechanical sensitivity was assessed on Day 7 and Day 14 by application of a series of von Frey filaments to the lower abdomen and the nociceptive threshold was scored.
# [5] = test system: male Sprague-Dawley rats; assay: Rat chronic prostatitis/chronic pelvic pain (carrageenan); type: in vivo; conditions: Day 3, 30 mg/kg dose, oral gavage QD
# Experimental: Representative compounds of the invention (i.e., test compounds) were administered for 11 days by oral gavage in 0.9% saline (3, 10 or 30 mg/kg QD; 5 mL/kg dose volume) to male Sprague-Dawley rats. Carrageenan-mediated chronic prostatitis/chronic pelvic pain (CP/CPPS) established in rats (10 per group) by administration of an intraprostatic injection of carrageenan (˜12.5 μL/lobe of a 30 mg/mL solution) into both ventral prostate lobes, on Day 0. Referred mechanical sensitivity was measured on Days 0, 1, 3 and 7, 2 hours after test compound, or vehicle (saline) administration, by applying 6 von Frey filaments with increasing forces of 0.16-2 g to the scrotal skin area, 3 times each for 1-2 seconds, with a 5-second interval between applications. Responses were scored (zero-no response; one-reaction of the animal, two-jump, and three-licking the site) and expressed as the nociceptive threshold for each day of assessment. Ibuprofen was used as a reference standard.
# According to the above assay, Compound Ia-1 restored nociceptive threshold to 65% of baseline on Day 3 at the 30 mg/kg dose as compared to the reference standard, ibuprofen (300 mg/kg), which restored the threshold to 120% of the baseline.
# [6] = test system: rats (male, Wistar); assay: Rat monosodium iodoacetate-induced osteoarthritis; type: in vivo; conditions: for reduction difference in weight bearing as compared to the vehicle: PO, QD
# Experimental: Representative compounds of the invention (i.e., test compounds) were administered to rats (male, Wistar) PO, QD, at 3 or 30 mg/kg, starting on Day 0 through to Day 21 of the study. Osteoarthritis was modeled by intra-articular injection of 3 mg of monosodium iodoacetate (MIA) in the right knee. Knee swelling, paw withdrawal threshold (mechanical allodynia) and the difference in weight bearing were measured on Day 0 (pre-induction) and on Days 3, 7, 14 and 21 post-MIA injection. Tramadol was used as a reference standard.
# [7] = test system: rats (male, Wistar); assay: Complete Freund's Adjuvant (CFA) model of inflammatory pain in rats; type: in vivo; conditions: 30 mg/kg dose
# Experimental: Representative compounds of the invention (i.e., test compounds) were tested in this model of inflammatory pain. The rats (male, Wistar) were acclimatized to the instruments (plantar test surface and dynamic plantar aesthesiometer) on two consecutive days prior to the initiation of the study. On Day 0, basal paw withdrawal latency and paw withdrawal threshold were taken and animals were randomized to different groups. Complete Freund's Adjuvant (CFA) at 1 mg/mL (0.1 mL) was injected into the plantar surface of right hind paw. Test compounds (3 or 30 mg/kg) were administered PO, twice (Day 0 and Day 1) or once, on Day 1 (24 h after CFA). Thermal hyperalgesia and mechanical allodynia were assessed at 0 (baseline), 1, 3 and 6 h after administration of the test compound on Day 1. Diclofenac was used as a reference compound, given once on Day 1.
compound,measurement,setting,value
"C=C1CC[C@H]2[C@H](CN)[C@@H]([C@@]3(C)Cc4cn[nH]c4C[C@@H]3CO)CC[C@]12C [Ia-1, ((5R,6S)-5-((3aS,4R,5S,7aS)-4-(aminomethyl)-7a-methyl-1-methyleneoctahydro-1H-inden-5-yl)-5-methyl-4,5,6,7-tetrahydro-1H-indazol-6-yl)methanol]",overall increase in paw withdrawal threshold as compared to the vehicle,[1]; 3 mg/kg,48%
same,overall increase in paw withdrawal threshold as compared to the vehicle,[1]; 10 mg/kg,62%
same,overall increase in paw withdrawal threshold as compared to the vehicle,[1]; 30 mg/kg,82%
same,reduction in BAL macrophages as compared to the vehicle,"[2]; Day 7, 3.0 mg/kg dose",41%
same,reduction in BAL macrophages as compared to the vehicle,"[2]; Day 7, 30 mg/kg dose",35%
same,reduction in fibrosis,"[2]; Day 14, 30 mg/kg dose (first mention)",31%
same,reduction in fibrosis,"[2]; Day 14, 30 mg/kg dose (second mention)",34%
same,IC50,[3],< 2000 nM
same,increase in the nociceptive threshold (relative to unchallenged),"[4]; 1.0 mg/kg dose, PO, QD",61%
same,increase in the nociceptive threshold (relative to unchallenged),"[4]; 3.0 mg/kg dose, PO, QD",69%
same,increase in the nociceptive threshold (relative to unchallenged),[4]; 10 mg/kg dose,85%
same,"nociceptive threshold restored, % of baseline",[5],65%
same,reduction difference in weight bearing as compared to the vehicle,[6]; 3.0 mg/kg dose,50%
same,reduction difference in weight bearing as compared to the vehicle,[6]; 30 mg/kg,57%
same,reduction in knee diameter as compared to the vehicle,"[6]; Day 3, 3.0 mg/kg",23%
same,reduction in knee diameter as compared to the vehicle,"[6]; Day 3, 30 mg/kg",43%
same,increase in the paw withdrawal threshold,[7],31%
